# Read-outs that look alike come from different tables or passages of the source.
# How the values were obtained:
# Bax = assay: Western blot of Bax in rat liver; type: in vivo; conditions: both experiments, 10 mg/kg orally
# Mdm2 = assay: Western blot of Mdm2 in rat liver nuclei; type: in vivo; conditions: both experiments, 10 mg/kg orally, vs positive control (p < 0.05)
# wild type p53 = assay: Immunoprecipitation and western blot of wild type p53 in rat liver nuclei; type: in vivo; conditions: 10 mg/kg orally
# [1] = tested on: hepatocarcinogenesis in rats (DEN & CCl4); assay: Relative liver weight, DEN/CCl4 hepatocarcinogenesis; type: in vivo, rat; conditions: both promotion and progression, 10 mg/kg orally
# Mdm2 mRNA = assay: Semi-quantitative RT-PCR of Mdm2 mRNA in rat liver; type: in vivo; conditions: both experiments, 10 mg/kg orally, vs positive control (p < 0.05)
# PCNA = assay: Western blot of PCNA in rat liver; type: in vivo; conditions: 10 mg/kg orally; for PCNA expression (PCNA : β-actin ratio): vs positive control
# [2] = tested on: hepatocarcinogenesis in rats (DEN & CCl4); assay: Gross examination of rat liver, DEN/CCl4 hepatocarcinogenesis; type: in vivo
# [3] = tested on: gene expressions of HepG2 cells; assay: cDNA microarray analysis of gene expression (human toxicology and drug metabolism); type: cell-based; conditions: 16 μM, 48 hrs, vs control
# [4] = tested on: total p53 (wild type and mutant); assay: Western blot of total p53 in rat liver nuclei; type: in vivo; conditions: 10 mg/kg orally
# p53 mRNA = assay: Semi-quantitative RT-PCR of p53 mRNA in rat liver; type: in vivo; conditions: both experiments, 10 mg/kg orally, vs positive control (p < 0.05)
# [5] = tested on: HepG2 cells, the human liver cancer cells; assay: Neutral red assay (cell viability), HepG2; type: cell-based; conditions: for IC50: Homo sapiens, read-out: IC50 (concentration that reduces cell viability by 50%)
# Bcl-2 = assay: Western blot of Bcl-2 in rat liver; type: in vivo; conditions: both experiments, 10 mg/kg orally
# rat liver (DEN & CCl4) = assay: Hematoxylin & Eosin staining of rat liver sections; type: in vivo; conditions: 10 mg/kg orally
# HepG2 cells [6] = assay: DNA fragmentation (DNA gel electrophoresis); type: cell-based, human; conditions: 50 μM, 72 hrs
# [7] = tested on: liver damage in rats (DEN & CCl4); assay: Serum AST and ALT assays, DEN/CCl4 hepatocarcinogenesis; type: in vivo, rat; conditions: 10 mg/kg orally
# [8] = tested on: WRL 68, human normal liver embryo cells; assay: Neutral red assay (cell viability), WRL 68; type: cell-based; conditions: for IC50: Homo sapiens, WRL68, read-out: IC50 (concentration that reduces cell viability by 50%)
# [9] = tested on: Clone 9, rat normal liver cells; assay: Neutral red assay (cell viability), Clone 9; type: cell-based; conditions: for IC50: Rattus norvegicus, read-out: IC50 (concentration that reduces cell viability by 50%)
# GST-P = assay: Immunohistochemical staining of GST-P foci in rat liver; type: in vivo
# HepG2 cells [10] = assay: Flow cytometry (cell cycle analysis, PI staining); type: cell-based, human
# p21 (Waf1/Cip1/Sdi1) = assay: Western blot of p21 in rat liver; type: in vivo; conditions: both experiments, 10 mg/kg orally, vs positive control
# [11] = progression experiment, p < 0.05
compound,measurement,setting,value
"C=C1CC[C@@H]2[C@](C)(CO)[C@H](O)CC[C@@]2(C)[C@@H]1C/C=C1/C(=O)OC[C@H]1O [AND, andrographolide]",Bax expression,Bax,a reduction of Bax expression
same,protein levels of Bax (Bax : β-actin ratio),Bax; vs positive control (p < 0.05),significantly increased
same,levels of Mdm2 protein (Mdm2 : β-actin ratio),Mdm2,significant decrease
same,level of wild type p53 (wt. p53 : β-actin ratio),"wild type p53; progression experiment, vs positive control (p < 0.05)",a significant increase
same,level of wild type p53 (wt. p53 : β-actin ratio),"wild type p53; promotion experiment, vs positive control",no significant difference
same,relative liver weight (liver weight/body weight),[1]; vs negative control,No significant difference
same,relative liver weight (liver weight/body weight),[1]; vs positive control,significant reduction
same,Mdm2 mRNA expression (Mdm2 : β-actin),Mdm2 mRNA,significantly reduced
same,PCNA expression,PCNA; both experiments,reduced in both experiments
same,PCNA expression (PCNA : β-actin ratio),PCNA; progression experiment,The level of PCNA expression in DEN-CCl4 treated rat was found to be significantly higher than that in the negative control and AND-treated groups
same,PCNA expression (PCNA : β-actin ratio),PCNA; promotion experiment,no significant difference
same,gross appearance of liver,"[2]; progression experiment, 10 mg/kg orally, 56th week","some nodules present on the surface of the AND-treated livers, but the structure of the livers generally resembled that of the normal livers"
same,gross appearance of liver,"[2]; promotion experiment, 10 mg/kg orally once daily, 28 weeks",had a smooth surface and generally resembled the negative control livers
same,expression of BCL2L2 (Bcl-w) gene,[3],down-regulated
same,expression of BCL2 gene,[3],down-regulated
same,expression of CCND1 gene,[3],down-regulated
same,expression of CHEK2 gene,[3],down-regulated
same,expression of CYP 2A6 gene,[3],down-regulated
same,expression of CYP 2D6 gene,[3],down-regulated
same,expression of IL1B gene,[3],under-expressed
same,expression of NFKB2 gene,[3],under-expressed
same,expression of NQO1 (NAD(P)H dehydrogenase quinone 1) gene,[3],up-regulated
same,expression of RB1 gene,[3],up-regulated
same,expression of SOD1 (superoxide dismutase 1) gene,[3],up-regulated
same,expression of TYMS (thymidylate synthetase) gene,[3],up-regulated
same,expression of XDH (xanthine dehydrogenase) gene,[3],up-regulated
same,number of genes down-regulated 3-folds or more,[3],forty-two
same,number of genes up-regulated 3-folds or more,[3],six
same,total p53 protein level (discussion),[4]; AND-treated group,the total p53 protein was increased
same,levels of total p53 protein expression,"[4]; both experiments, vs negative control (no significant difference)",higher levels of total p53 protein expression
same,levels of total p53 (total p53 : β-actin ratio),"[4]; both experiments, vs positive control",no significant difference
same,p53 mRNA expression (p53 : β-actin),p53 mRNA,significant reduction
same,inhibitory effect on the proliferation of HepG2,"[5]; HepG2, human liver cancer cell line (Fig. 1)",significantly inhibitory effect
same,IC50,"[5]; HepG2, 24 hrs",17.5 µM
same,IC50,"[5]; HepG2, 48 hrs",16 µM
same,IC50,"[5]; HepG2, 72 hrs",17 µM
same,IC50 for HepG2 cells compared with WRL 68 cells,"[5]; all three time periods (24, 48 and 72 hrs), P < 0.05",significantly lower
same,Bcl-2 expression,Bcl-2,an increase in Bcl-2 expression
same,Bcl-2 protein expression (Bcl-2 : β-actin ratio),Bcl-2; vs positive control (p < 0.05),significantly lower
same,liver histology (H & E staining),rat liver (DEN & CCl4); progression experiment,normal alignment of hepatocytes around central vein
same,liver histology (H & E staining),rat liver (DEN & CCl4); promotion experiment,Liver structure was restored and hepatocyte arrangement was not as distorted as that of the positive control sections. Vacuolization was reduced and distinct cytoplasm was visible
same,DNA fragmentation,HepG2 cells [6],fragmentation at around 200 bp was detected
same,serum ALT level,[7]; [11],significant reduction
same,serum AST level,[7]; [11],significant reduction
same,serum ALT level,"[7]; promotion experiment, p < 0.01",significant reduction
same,serum AST level,"[7]; promotion experiment, p < 0.01",significant reduction
same,IC50,"[8]; WRL 68, 24 hrs",57 µM
same,IC50,"[8]; WRL 68, 48 hrs",30 µM
same,IC50,"[8]; WRL 68, 72 hrs",35 µM
same,cytotoxicity,"[8]; WRL 68, at a concentration of 18 μM (Fig. 2)",significant cytotoxicity was also detectable
same,cytotoxicity,"[9]; Clone 9, at a concentration of 18 μM (Fig. 3)",significant cytotoxicity was also detectable
same,IC50,"[9]; Clone 9, 24 hrs",22 µM
same,IC50,"[9]; Clone 9, 48 hrs",18 µM
same,IC50,"[9]; Clone 9, 72 hrs",18 µM
same,number and area of GST-P positive foci,"GST-P; 10 mg/kg for 24 and 52 weeks, promotion and progression stages",a decrease in the number and area of GST-P positive foci
same,GST-P expression in liver section,"GST-P; promotion experiment, 10 mg/kg orally",the expression of GST-P was present but the affected area was reduced
same,percentage of cells suspended in the sub G1 phase of the cell cycle,"HepG2 cells [10]; 25 μM (Fig. 7, 48 hrs)",13.1%
same,accumulation of cells in G0/G1 phase of the cell cycle,"HepG2 cells [10]; 25 μM, 48 hrs (Fig. 7)",67.1%
same,populations of cells suspended in S and G2/M phases,"HepG2 cells [10]; 12.5 and 25 μM AND, 48 hrs, vs control (P < 0.05)",significantly decreased
same,accumulation of cells in the sub G1 and G0/G1 phases,"HepG2 cells [10]; 12.5 and 25 μM AND, 48 hrs, vs control cells",significantly induced the accumulation of cells
same,cells suspended in sub G1 phase,"HepG2 cells [10]; 20 and 25 μM AND, 24 hrs, vs 1% DMSO",more cells were suspended in sub Gi phase than those treated with DMSO only
same,"population of cells suspended in G0/G1, S and G2/M phases","HepG2 cells [10]; 20 and 25 μM AND, 24 hrs, vs control cells (P > 0.05)",no significant changes
same,levels of p21 (p21 : β-actin ratio),p21 (Waf1/Cip1/Sdi1),"higher than positive control groups, but no significant difference is observed"

# From patent WO2010003376A1, “Methods for treatment and/or prevention of cancer with andrographolide (and) and use thereof” (Chinese University of Hong Kong CUHK, priority 2008, dated 2010)
